Laboratory results from patent publication EP4796125A1, “TREATMENT OF PATIENT WITH NEGATIVE P53 GENE MUTATION, POSITIVE KRAS GENE MUTATION AND POSITIVE BRCA MUTATION” (Ascentawits Pharmaceuticals, Ltd., priority 2023, dated 2025).

What was measured:
[1] = tested on: cell lines and mouse tumor models of BRCA pathogenic mutations; settings: in vitro and in vivo pharmacodynamic experiments; data of WO2023174319A; cited from earlier work
H460 cells = experiment: Cell cycle G2/M arrest, PI staining and flow cytometry; format: cell-based
Method: • 1) H460/HPAF-II cell suspensions were added to a 24-well plate, with a cell density of 100000 cells/well and 995 µL of medium per well. • 2) The cells were cultured overnight in a 37°C, 5% CO2 incubator. • 3) Compound Treatment
24 hours after cell plating, according to the protocol, the experimental groups for each cell line were as follows: Monotherapy: 24 hours after cell plating, 5 µL of test compounds at different concentrations was added: 1% DMSO, 5 µM Nutlin-3, and 0.1 nM AST-3424. The plate was gently shaken to ensure even mixing, and then placed in a 37°C, 5% CO2 incubator.
• Cells were pretreated with AST-3424 for 2 hours, and then co-treatment with Nutlin-3 for 24 hours; • cells were pretreated with Nutlin-3 for 2 hours, and then co-treatment with AS -3424 for 24 hours; and • cells were co-treated with AST-3424 and Nutlin-3 for 24 hours. • 4) The cells were digested, centrifuged at 1000 g at 4°C, washed once with pre-cooled PBS, centrifuged at 1000 g at 4°C, and fixed with 1 mL of pre-cooled 70% ethanol at - 20°C overnight. • 5) The cells were centrifuged at 3000 g at 4°C, washed once with pre-cooled PBS (phosphate buffer), and centrifuged at 3000g at 4°C. PI staining solution was prepared. The cells were stained at 37°Cfor 30 minutes (protected from light), and stored in an ice bath (protected from light). The cells were detected using a flow cytometer on the same day, and the proportions of cells in different cell cycle phases was analyzed using FlowJo.
The remaining operations were similar to those of the above experiment, and the compound treatment was as follows: […]

NCI-H460 cells = experiment: In vitro proliferation under normoxia conditions (CTG, 72 hours), Example 29; format: cell-based; settings: Homo sapiens, Table 25, normoxia, alone or + 3 µM AST-3021
Method: • 1) NCI-H460 and NCI-H460 P53KO # 1 cell suspensions were added to 96-well plate (100 µL per well), with a cell density of 2000 cells/well. • 2) The cells were cultured overnight in a 37°C, 5% CO2 incubator. • 3) Compound Treatment
Monotherapy: 24 hours after cell plating, each well was supplemented with 99.5 µL of growth medium. Then, 0.5 µL of test compounds at different concentrations was added. The plate was gently shaken to ensure even mixing, and then placed in a 37°C, 5% CO2 incubator.
Combination therapy: 24 hours after cell plating, each well was supplemented with 99 µL of growth medium. Then, 0.5 µL of the combination compound was added. The plate was gently shaken to ensure even mixing, and then placed in an incubator for 2 hours. Then, 0.5µL of test compounds at different concentrations was added. The plate was gently shaken to ensure even mixing, and then placed in a 37°C, 5% CO2 incubator. • 4) The cell plate was placed in the incubator for 72 hours. • 5) The cell plate to be tested was placed at room temperature and equilibrated for 30 minutes, and 100 µL of medium was discarded from each well. • 6) 25 µL of CTG reagent was added to each well, placed at a fast shaker to shake for 2 minutes, and placed at room temperature for 30 minutes (protected from light). • 7) The chemiluminescence signal value was read using a multifunctional microplate reader with a reading time of 1000 ms. • 8) IC50 (half maximal inhibitory concentration) values were calculated using GraphPad Prism 5 software.

[2] = tested on: γH2AX protein in H460 cells; experiment: WB detection of γH2AX protein (DNA double-strand damage); format: cell-based; settings: AST-3424 alone or with 5 µM Nutlin-3, dose-dependent (Figures 24-26)
Description: In the first experiment, the second experiment and the third experiment about the effect of the combination of AST-3424 and Nutlin-3 on Ser15-p53, Ser20-p53, Total p53, MDM2, and p21 proteins in H460 cells in Example 21, the applicant also performed WB detection of γH2AX protein.

C[C@H](OP(=O)(N1CC1)N1CC1)c1ccc([N+](=O)[O-])c(Oc2cccc(C(=O)N(C)C)c2)c1 [AST-3424]
sensitivity of cell lines and mouse tumor models of BRCA pathogenic mutations [1]: more sensitive | cell cycle (G0/G1, S, G2/M phases) (H460 cells; 0.1 nM AST-3424, 5 µM Nutlin-3, 24 hours, combination: AST-3424 added first (Figure 9)): does not significantly alter the cell cycle | G2/M cell cycle arrest (H460 cells; 0.03-1 nM AST-3424 ± 5 µM Nutlin-3 (AST-3424 pre-treatment 2 hours), second experiment (Figure 10)): induces concentration-dependent G2/M cell cycle arrest | IC50 (NCI-H460 cells): 0.43 nM | level of γH2AX protein [2]: upregulate
